Experimental data taken from paper PMC7170901, “Design and efficient synthesis of pyrazoline and isoxazole bridged indole C-glycoside hybrids as potential anticancer agents” (Scientific Reports, 2020).

How the values were obtained:
[1] = test system: MCF-7 breast cancer cells; experiment: MTT cell viability assay in MCF-7 cells; format: cell-based; details: Homo sapiens, MCF7; for viability at 1 µM: MCF-7, 1 µM; for viability at 1 µM / viability at 10 µM / viability at 25 µM: read-out: Cell Viability (%) ± SD; for viability at 10 µM: MCF-7, 10 µM; for viability at 25 µM: MCF-7, 25 µM; for IC50: MCF-7, MTT, five concentrations (1.0, 5.0, 10.0, 25 and 50 µM)
MDA-MB-453 cells = experiment: MTT cell viability assay in MDA-MB-453 cells; format: cell-based; details: Homo sapiens, read-out: Cell Viability (%) ± SD; for viability at 1 µM: MDA-MB-453, 1 µM; for viability at 10 µM: MDA-MB-453, 10 µM; for viability at 25 µM: MDA-MB-453, 25 µM
Excerpt: (§1) MDA-MB-231 represents a specific subtype, known as the triple negative breast cancer (TNBC). […] We also included normal mammary epithelial MCF-10A cells in our experiments to confirm if the growth-inhibitory activities of the selected compounds are truly cancer cell-specific. […] Furthermore, none of these compounds did have any growth inhibitory activity against normal breast epithelial cell (MCF-10A). The IC50 values for these compounds against MDA-MB-231 cells (Fig. 2) are also included in Table 4 for comparison. Cell viability assay was performed as per standard protocols. After 72 h of cell incubation in the presence or absence of each compound, cell viability was evaluated by using MTT ((3-(4,5-dimethylthiazol-2-yl)-2,5-diphenyltetrazolium bromide)) (Himedia Pvt. Ltd, India). In brief, this is a homogeneous, colorimetric method for determining the number of viable cells in proliferation, cytotoxicity or chemosensitivity assays. MTT is bio reduced by cells into a formazan product that is […]. After 72 h of compound treatment, the medium was removed and 100 μL of MTT (0.5 mg ml^−1 in media) was added to the cells and kept in the dark for 3 h at 37 °C in the CO2 incubator and the formazan formed was dissolved in 100 μL DMSO (Dimethyl Sulfoxide). The absorbance of the formazan product at 595 nm was measured directly from 96-well assay plates without additional processing using a multimode plate reader (Bio-Rad) (iMark, India), as absorbance is directly proportional to the number of viable cells in culture. The percentage of viable cells in each group is determined with respect to the untreated control cells.

[2] = MTT cell viability assay in normal MCF-10A cells; format: cell-based; details: human, MCF-10A normal mammary epithelial cells, read-out: Cell Viability (%) ± SD
Excerpt: as §1

COX-2 enzyme = biological target: T1, COX-2 enzyme (Homo sapiens, UniProt P35354); experiment: Fluorescence-based COX-2 inhibitor screening assay; format: biochemical
T1 construct: purchased Bio Vision (BioVision), USA K547 / k547–100
T1 sequence (P35354 18-604): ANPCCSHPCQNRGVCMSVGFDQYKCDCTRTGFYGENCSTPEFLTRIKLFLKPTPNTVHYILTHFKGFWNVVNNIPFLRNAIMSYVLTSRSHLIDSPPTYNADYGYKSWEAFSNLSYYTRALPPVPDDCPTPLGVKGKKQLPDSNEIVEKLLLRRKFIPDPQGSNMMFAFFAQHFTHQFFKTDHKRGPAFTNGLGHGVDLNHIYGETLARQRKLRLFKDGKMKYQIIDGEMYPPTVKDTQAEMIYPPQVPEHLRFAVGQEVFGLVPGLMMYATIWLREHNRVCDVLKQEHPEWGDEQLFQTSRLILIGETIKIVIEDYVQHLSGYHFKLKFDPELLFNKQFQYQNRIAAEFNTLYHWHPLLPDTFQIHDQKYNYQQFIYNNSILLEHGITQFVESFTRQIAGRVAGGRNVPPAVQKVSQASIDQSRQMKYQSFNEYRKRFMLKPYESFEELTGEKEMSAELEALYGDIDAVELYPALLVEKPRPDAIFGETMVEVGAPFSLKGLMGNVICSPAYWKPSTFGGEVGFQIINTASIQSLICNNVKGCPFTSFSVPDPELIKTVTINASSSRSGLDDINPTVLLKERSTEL
Procedure: In this method we detect the fluorescence compound PGG2 which can easily be analysed with an excitation wavelength of 540 nm and emission wavelength of 590 nm. The result of COX-2 inhibitory activity has been summarised in Table 5 at two different concentrations.
Assay for cyclooxygenases (COXs) inhibition for COX-2 activity was determined by a fluorescence-based method using a COX-2 inhibitor screening assay kit (Bio vision, catalog # k547–100, S. millipitas Blvd, USA) in a total volume of 100 μL according to the directions provided with the kit manufacturer. The inhibitory activities of the tested compounds were based on the fluorometric detection of Prostaglandin G2 the intermediate product generated by the COX enzyme. The enzymes were preincubated for 5 min at 25 °C with the test compounds prior to addition of arachidonic acid. Celecoxib was used as positive control. Fluorescence was measured (Ex/Em = 540/590 nm) kinetically at 25 °C for 5–10 minutes. Two time point was chosen in the linear range of the plot and obtained the corresponding values (RFU1 and RFU2) The COX-2 inhibitory activity was calculated according to the equation. % Relative inhibition = Slope of EC − Slope of S/Slope of EC × 100. Where EC is the enzyme control and S is sample screen and slope of all the sample is calculated by dividing the net ΔRFU(RFU2 − RFU1) values by the ΔT (T2 − T1).

Row | SMILES | viability at 1 µM [1] | viability at 10 µM [1] | viability at 25 µM [1] | IC50 [1] | viability at 1 µM (MDA-MB-453 cells) | viability at 10 µM (MDA-MB-453 cells) | viability at 25 µM (MDA-MB-453 cells) | viability at 72 h, 25 µM [2] | viability at 72 h, 50 µM [2] | viability at 72 h, 100 µM [2] | inhibition at 25 µM (COX-2 enzyme) | inhibition at 50 µM (COX-2 enzyme)
1 | O=C(/C=C/c1c[nH]c2ccccc12)C[C@@H]1O[C@H](CO)[C@@H](O)[C@H](O)[C@H]1O [Compound 9, (E)-4-(1H-indol-3-yl)-1-((2S,3R,4R,5S,6R)-3,4,5-trihydroxy-6-(hydroxymethyl)tetrahydro-2H-pyran-2-yl)but-3-en-2-one] | 79.7 ± 1.18% | 62.3 ± 3.6% | 53.7 ± 4% | 30 µM | 80.6 ± 8% | 76.4 ± 5.4% | 96.1 ± 35.7% | 87.6 ± 1.5% | 81.3 ± 2.9% | 84.2 ± 3% | 25% | 71%
2 | O=[N+]([O-])c1ccc2[nH]cc(-c3cc(C[C@@H]4O[C@H](CO)[C@@H](O)[C@H](O)[C@H]4O)no3)c2c1 [Compound 34, (2 R,3 S,4 R,5 R,6 S)-2-(hydroxymethyl)-6-((5-(5-nitro-1H-indol-3-yl)isoxazol-3-yl)methyl) tetrahydro-2H-pyran-3,4,5-triol] | 41.3 ± 3.1% | 28.4 ± 0.9% | 23.1 ± 4.4% | 0.71 µM | 92.5 ± 4.6% | 80.9 ± 1.2% | 66.8 ± 1.7% | 87.6 ± 1.5% | 80.1 ± 2.8% | 84.2 ± 3% | 4.9% | 59%
3 | OC[C@H]1O[C@@H](Cc2cc(-c3c[nH]c4ccccc34)on2)[C@H](O)[C@@H](O)[C@H]1O [Compound 37, (2 S,3 R,4 R,5 R,6 R)-2-((5-(1H-indol-3-yl)isoxazol-3-yl)methyl)-6-(hydroxymethyl) tetrahydro-2H-pyran-3,4,5-triol] | 30.8 ± 4.2% | 21.2 ± 3.8% | 19.1 ± 3.5% | – | 95.4 ± 4.8% | 76.4 ± 5.4% | 96.1 ± 35.7% | 86.8 ± 2.8% | 83.2 ± 5.8% | 81 ± 1.5% | – | 95%
4 | OC[C@H]1O[C@@H](CC2=NNC(c3c[nH]c4ccccc34)C2)[C@H](O)[C@@H](O)[C@H]1O (stereo partly shown) [Compound 25, (2 S,3 R,4 R,5 R,6 R)-2-((5-(1H-indol-3-yl)-4,5-dihydro-1H-pyrazol-3-yl)methyl)-6-(hydroxy-methyl)tetrahydro-2H-pyran-3,4,5-triol] | 66 ± 4.7% | 34 ± 2.5% | 19.9 ± 2.9% | 4.67 µM | 88.8 ± 5.2% | 78.3 ± 4.7% | 69.6 ± 5.3% | 87.6 ± 2.2% | 84.6 ± 1.7% | 82.4 ± 2.6% | 6.7% | 27%
5 | O=C(/C=C/c1c[nH]c2ccc(Cl)cc12)C[C@@H]1O[C@H](CO)[C@@H](O)[C@H](O)[C@@H]1O [Compound 20, (E)-4-(5-chloro-1H-indol-3-yl)-1-((2S,3S,4R,5S,6R)-3,4,5-trihydroxy-6-(hydroxymethyl)tetrahydro-2H-pyran-2-yl)but-3-en-2-one] | 79.2 ± 2.6% | 58.7 ± 2.4% | 47.3 ± 7.6% | 21 µM | 105 ± 8.1% | 74.8 ± 1.5% | 66.4 ± 3.2% | 85.8 ± 5.3% | 78.8 ± 3% | 36.5 ± 3.4% | 13.7% | 39%
